25 compounds from patent US8399465B2, “Compounds with two fused bicyclic heteroaryl moieties as modulators of leukotriene A4 hydrolase” (Janssen Pharmaceutica NV, priority 2009, dated 2013) can be followed below.

SMILES strings stand for the structures. Structures can show the parent of a compound that is named as a salt.

Assay [1] deals with T1, recombinant human LTA4 hydrolase (rhLTA4H) (Homo sapiens, UniProt P09960).
T1 construct: made in house; host or cells: Spodoptera frugiperda (Sf-9) cells, baculovirus (pFastBac1)
T1 sequence (P09960 1-611): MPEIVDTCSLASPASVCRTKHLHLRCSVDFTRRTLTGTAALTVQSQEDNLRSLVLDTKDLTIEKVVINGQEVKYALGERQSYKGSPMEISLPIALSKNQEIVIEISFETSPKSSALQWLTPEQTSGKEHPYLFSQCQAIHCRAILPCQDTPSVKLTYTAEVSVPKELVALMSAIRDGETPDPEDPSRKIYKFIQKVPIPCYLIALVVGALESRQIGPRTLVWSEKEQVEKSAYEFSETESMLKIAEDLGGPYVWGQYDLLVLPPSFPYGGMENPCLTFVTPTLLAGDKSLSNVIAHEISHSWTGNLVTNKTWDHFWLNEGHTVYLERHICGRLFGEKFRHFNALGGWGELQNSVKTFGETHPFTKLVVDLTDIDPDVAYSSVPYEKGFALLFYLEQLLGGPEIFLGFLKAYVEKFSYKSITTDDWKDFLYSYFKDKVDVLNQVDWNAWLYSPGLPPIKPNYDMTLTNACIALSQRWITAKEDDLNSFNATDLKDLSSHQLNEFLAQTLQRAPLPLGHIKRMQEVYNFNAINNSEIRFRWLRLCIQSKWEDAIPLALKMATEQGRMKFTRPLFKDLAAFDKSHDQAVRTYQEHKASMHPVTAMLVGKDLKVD
Kind of assay: Recombinant human LTA4 hydrolase assay for LTA4 hydrolase inhibitor activity. Format: biochemical. To be noted: rhLTA4H, LTB4 by immunoassay; single determination or average of two or more; mark after value = form tested: ′ free base, ″ hydrochloride, ^ formate; read-out: IC50. Summed up:
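LTB4 formation, measured by enzyme immunoassay, was the read-out. The enzyme, recombinant human LTA4H expressed in Sf-9 insect cells (10 ng per reaction), was exposed to compound for 10 min at room temperature before hydrolysed-ester LTA4 substrate was added for 30 min. Enzyme-free negatives were included.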

Assay [2] has as its system LTB4 production in murine blood (LTA4H). Kind of assay: LTB4 production by calcium ionophore-stimulated murine blood for LTA4H inhibitor activity. The class given is cell-based, CD-1 mice. The following applies: Mus musculus; murine blood diluted 1 in 15, A23187 stimulated; single determination or average; mark after value = form tested: ′ free base, ″ hydrochloride, ^ formate; read-out: IC50. The protocol:
Assay 2: LTB4 Production by Calcium Ionophore-Stimulated Murine Blood for LTA4H Inhibitor Activity
CD-1 mice were sacrificed, and blood was collected in heparin-containing syringes by cardiac puncture. […] After the microtiter plate contents were incubated for 15 min at 37° C. in a humidified incubator, calcium ionophore A23187 (Sigma Chemical Co., St. Louis, Mo.) was added to each sample well (final concentration=7 μg/mL). The incubation was continued under the same conditions for an additional 30 min to allow LTB4 formation. The reaction was terminated by centrifugation (833×g, 10 min at 4° C.), and supernatants were analyzed for LTB4 by a commercially available enzyme-linked immunoassay (Cayman Chemical Co.) according to the manufacturer's instructions. Positive controls, under essentially identical conditions but without addition of an inhibitor compound, and negative unstimulated controls, containing all assay components except calcium ionophore, were routinely run in each experiment. […] The values presented here are the result of a single determination or an average of two or more determinations.

For `O=C(c1coc2cc(Oc3nc4ncccc4s3)ccc12)N1CCC(Oc2ncccn2)CC1` [Example 382, [4-(Pyrimidin-2-yloxy)-piperidin-1-yl]-[6-(thiazolo[4,5-b]pyridin-2-yloxy)-benzofuran-3-yl]-methanone], the 50% inhibitory concentration (IC50) was 10 nM in assay [1] and 60 nM in assay [2].

As to `CS(=O)(=O)N1CCC(N(Cc2coc3cc(Oc4nc5ncccc5s4)ccc23)C2CC2)CC1` [Example 246, Cyclopropyl-(1-methanesulfonyl-piperidin-4-yl)-[6-(thiazolo[4,5-b]pyridin-2-yloxy)-benzofuran-3-ylmethyl]-amine], the half-inhibitory concentration (IC50) in assay [1] worked out at 14 nM; in assay [2], 90 nM.

For `COC1CCN(Cc2coc3cc(Oc4nc5ncccc5s4)ccc23)CC1` [Example 271, 2-[3-(4-Methoxy-piperidin-1-ylmethyl)-benzofuran-6-yloxy]-thiazolo[4,5-b]pyridine formate], the IC50 in assay [1] was determined as 5 nM; in assay [2], 79 nM.

With `CC(=O)N[C@H]1C[C@H]2CC[C@@H](C1)N2CCc1coc2cc(Oc3nc4ccccc4s3)ccc12` [Example 129, meso-endo-N-(8-{2-[6-(Benzothiazol-2-yloxy)-benzofuran-3-yl]-ethyl}-8-aza-bicyclo[3.2.1]oct-3-yl)-acetamide], the IC50 in assay [1] was 13 nM; in assay [2] it was 180 nM.

For the compound `c1cnc2nc(Oc3ccc4c(CN5CCN6CCCC6C5)coc4c3)sc2c1` (centres unmarked) [Example 326, 2-[3-(Hexahydro-pyrrolo[1,2-a]pyrazin-2-ylmethyl)-benzofuran-6-yloxy]-thiazolo[4,5-b]pyridine], the values for the IC50 in assay [1] and in assay [2] were 21 nM and 120 nM, respectively.

Consider `CS(=O)(=O)NCCC1CCN(Cc2coc3cc(Oc4nc5ccccc5s4)ccc23)CC1` [Example 364, N-(2-{1-[6-(Benzothiazol-2-yloxy)-benzofuran-3-ylmethyl]-piperidin-4-yl}-ethyl)-methanesulfonamide], for which the IC50 in assay [1] came out at 18 nM; in assay [2], 310 nM.

In the case of `CC(=O)N1CCN(C(=O)c2coc3cc(Oc4nc5ncccc5s4)ccc23)CC1` [Example 380, 1-{4-[6-(Thiazolo[4,5-b]pyridin-2-yloxy)-benzofuran-3-carbonyl]-piperazin-1-yl}-ethanone], the figures for the half-inhibitory concentration (IC50) in assay [1] and in assay [2] were 7 nM and 35 nM, respectively.

In the case of `O=C(C1CCN(Cc2c[nH]c3cc(Oc4nc5ccccc5s4)ccc23)CC1)N1CCCC1` [Example 23, {1-[6-(Benzothiazol-2-yloxy)-1H-indol-3-ylmethyl]-piperidin-4-yl}-pyrrolidin-1-yl-methanone], the IC50 in assay [1] was 5 nM; in assay [2] it was 114 nM.

With `F[C@@H]1CCN(Cc2coc3cc(Oc4nc5ncccc5s4)ccc23)C1` [Example 328, (R)-2-[3-(3-Fluoro-pyrrolidin-1-ylmethyl)-benzofuran-6-yloxy]-thiazolo[4,5-b]pyridine], the IC50 worked out at 12 nM in assay [1] and 93 nM in assay [2].

As to `O=C(C1CCN(Cc2c[nH]c3cc(Oc4nc5ccccc5s4)ccc23)CC1)N1CCCCC1` [Example 24, {1-[6-(Benzothiazol-2-yloxy)-1H-indol-3-ylmethyl]-piperidin-4-yl}-piperidin-1-yl-methanone], the IC50 came to 2 nM in assay [1] and 341 nM in assay [2].

As to `c1ccc(N2CCN(Cc3coc4cc(Oc5nc6ncccc6s5)ccc34)CC2)nc1` [Example 288, 2-[3-(4-Pyridin-2-yl-piperazin-1-ylmethyl)-benzofuran-6-yloxy]-thiazolo[4,5-b]pyridine formate], the IC50 worked out at 19 nM in assay [1] and 170 nM in assay [2].

Consider `CS(=O)(=O)N1C[C@@H]2CC[C@H]1CN2Cc1coc2cc(Oc3nc4ncccc4s3)ccc12` [Example 245, (1S,4S)-2-Methanesulfonyl-5-[6-(thiazolo[4,5-b]pyridin-2-yloxy)-benzofuran-3-ylmethyl]-2,5-diaza-bicyclo[2.2.2]octane], for which the IC50 in assay [1] is 4 nM; in assay [2] it was 32 nM.

For `NC(=O)N1CC2CN(Cc3coc4cc(Oc5nc6ncccc6s5)ccc34)CC2C1` (centres unmarked) [Example 161, 5-[6-(Thiazolo[4,5-b]pyridin-2-yloxy)-benzofuran-3-ylmethyl]-hexahydro-pyrrolo[3,4-c]pyrrole-2-carboxylic acid amide], the IC50 in assay [1] turned out to be 9 nM; in assay [2], 69 nM.

As to `OC1CCN(Cc2coc3cc(Oc4nc5ncccc5s4)ccc23)CC1` [Example 268, 1-[6-(Thiazolo[4,5-b]pyridin-2-yloxy)-benzofuran-3-ylmethyl]-piperidin-4-ol], the half-inhibitory concentration (IC50) came to 8 nM in assay [1] and 150 nM in assay [2].

For `NC(=O)C1CCN(Cc2c[nH]c3cc(Oc4nc5ccccc5s4)ccc23)CC1` [Example 21, 1-[6-(Benzothiazol-2-yloxy)-1H-indol-3-ylmethyl]-piperidine-4-carboxylic acid amide], the half-maximal inhibitory concentration (IC50) was determined as 5 nM in assay [1] and 161 nM in assay [2].

For `c1ccc2sc(Oc3ccc4c(CN5C[C@@H]6C[C@H]5CO6)c[nH]c4c3)nc2c1` [Example 12, (1S,4S)-2-[3-(2-Oxa-5-aza-bicyclo[2.2.1]hept-5-ylmethyl)-1H-indol-6-yloxy]-benzothiazole], the IC50 in assay [1] came to 13 nM; in assay [2], 250 nM.

As to `CC(C)(C)OC(=O)N1C[C@@H]2C[C@H]1CN2Cc1c[nH]c2cc(Oc3nc4ccccc4s3)ccc12` [Example 147, (1S,4S)-5-[6-(Benzothiazol-2-yloxy)-1H-indol-3-ylmethyl]-2,5-diaza-bicyclo[2.2.1]heptane-2-carboxylic acid tert-butyl ester], the IC50 in assay [1] stood at 12 nM; in assay [2], 568 nM.

`CC(=O)N1CC2CN(Cc3c[nH]c4cc(Oc5nc6ccccc6s5)ccc34)CC2C1` (centres unmarked) [Example 54, 1-{5-[6-(Benzothiazol-2-yloxy)-1H-indol-3-ylmethyl]-hexahydro-pyrrolo[3,4-c]pyrrol-2-yl}-ethanone]: the half-inhibitory concentration (IC50) was found to be 4 nM in assay [1] and 165 nM in assay [2].

Regarding `NC(=O)[C@H]1CCCN(Cc2c[nH]c3cc(Oc4nc5ccccc5s4)ccc23)C1` [Example 27, (3S)-1-[6-(Benzothiazol-2-yloxy)-1H-indol-3-ylmethyl]-piperidine-3-carboxylic acid amide], the results for the IC50 in assay [1] and in assay [2] were 19 nM and 136 nM, respectively.

As for `O=C1Cc2ccc(Cl)cc2N1Cc1coc2cc(Oc3nc4ncccc4s3)ccc12` [Example 402, 6-Chloro-1-[6-(thiazolo[4,5-b]pyridin-2-yloxy)-benzofuran-3-ylmethyl]-1,3-dihydro-indol-2-one], the IC50 in assay [1] came out at 32 nM; in assay [2], 400 nM.

Regarding `CC(C)CNCc1coc2cc(Oc3nc4ncccc4s3)ccc12` [Example 304, Isobutyl-[6-(thiazolo[4,5-b]pyridin-2-yloxy)-benzofuran-3-ylmethyl]-amine formate], the concentration for half-maximal inhibition (IC50) was 3 nM in assay [1] and 24 nM in assay [2].

Turning to `CC(=O)N1C[C@H]2C[C@@H]1CN2Cc1cc2ncc(Oc3nc4ncccc4s3)cc2o1` [Example 340, (1R,4R)-1-{5-[6-(Thiazolo[4,5-b]pyridin-2-yloxy)-furo[3,2-b]pyridin-2-ylmethyl]-2,5-diaza-bicyclo[2.2.1]hept-2-yl}-ethanone formate], the IC50 in assay [1] stood at 12 nM; in assay [2], 610 nM.

As for `c1cnc2nc(Oc3ccc4c(CN5CCSCC5)c[nH]c4c3)sc2c1` [Example 42, 2-(3-Thiomorpholin-4-ylmethyl-1H-indol-6-yloxy)-thiazolo[4,5-b]pyridine], the IC50 is < 1 nM in assay [1] and 27 nM in assay [2].

`NC(=O)N[C@@H]1C[C@H]2CC[C@@H](C1)N2Cc1coc2cc(Oc3nc4ncccc4s3)ccc12` [Example 207, meso-exo-{8-[6-(Thiazolo[4,5-b]pyridin-2-yloxy)-benzofuran-3-ylmethyl]-8-aza-bicyclo[3.2.1]oct-3-yl}-urea]: the values for the IC50 in assay [1] and in assay [2] were 1 nM and 160 nM, respectively.

Turning to `FC1CCN(Cc2coc3cc(Oc4nc5ncccc5s4)ccc23)CC1` [Example 270, 2-[3-(4-Fluoro-piperidin-1-ylmethyl)-benzofuran-6-yloxy]-thiazolo[4,5-b]pyridine formate], the results for the 50% inhibitory concentration (IC50) in assay [1] and in assay [2] were 26 nM and 100 nM, respectively.

As a reminder, the IC50 is the concentration needed to halve the response being measured.
